# System: male spontaneously hypertensive rats
# Assay: Decrease in systolic blood pressure in spontaneously hypertensive rats after intravenous bolus injection, indirect (tail-cuff) method
# Assay type: in vivo, rat
# Conditions: for Decrease in systolic blood pressure (mmHg) time after administration (hour) 0.5: 0.5 hour after administration; for Decrease in systolic blood pressure (mmHg) time after administration (hour) 4: 4 hours after administration
# Description: As test animals, four male spontaneously hypertensive rats (weight 400 to 440 g) that were sufficiently adapted for feeding and in which hypertension was confirmed were used.
# Physiological saline aqueous solution containing 2.5% Nicolle and 2.5% ethanol of sample was intravenously administered by bolus injection at a dose of 1 ml per 1 kg of body weight. Systolic blood pressure after administration was measured by the indirect (tail-cuff) method.
Structure (SMILES),Decrease in systolic blood pressure (mmHg) time after administration (hour) 0.5 (dose 10 mg/kg i.v. bolus) [mmHg],Decrease in systolic blood pressure (mmHg) time after administration (hour) 4 (dose 10 mg/kg i.v. bolus) [mmHg],further results
"CCOC(=O)N1CCCC(CCCCN2CCC(=C3c4ccccc4C=Cc4ccccc43)CC2)C1.Cl (centres unmarked) [Example 312, 4-(4-(5H-Dibenzo[a,d]cyclohepten-5-ylidene)-1-piperidinyl)-1-(N-ethoxycarbonyl-3-piperidinyl)butane hydrochloride]",−115,−11,
"COC(=O)C1(CCCCCN2CCC(=C3c4ccccc4C=Cc4ccccc43)CC2)CCCCC1.Cl [Example 313, 1-(5-(4-(5H-Dibenzo[a,d]cyclohepten-5-ylidene)-1-piperidinyl)-1-pentyl)-1-methoxycarbonylcyclohexane hydrochloride]",−154,−85,
"COC(=O)C1(CCCN2CCC(=C3c4ccccc4C=Cc4ccccc43)CC2)CCCCC1.Cl [Example 314, 1-(3-(4-(5H-Dibenzo[a,d]cyclohepten-5-ylidene)-1-piperidinyl)-1-propyl)-1-methoxycarbonylcyclohexane hydrochloride]",−61,−11,
"Cl.Cl.Nc1cccc(CCCN2CCC(=C3c4ccccc4C=Cc4ccccc43)CC2)c1 [Example 315, 1-(3-Aminophenyl)-3-(4-(5H-dibenzo[a,d]cyclohepten-5-ylidene)-1-piperidinyl)propane dihydrochloride]",−43,−3,
"CC(=O)Nc1cccc(CCCN2CCC(=C3c4ccccc4C=Cc4ccccc43)CC2)c1.Cl [Example 316, 1-(3-Acetylaminophenyl)-3-(4-(5H-dibenzo[a,d]cyclohepten-5-ylidene)-1-piperidinyl)propane hydrochloride]",,,Decrease in systolic blood pressure (mmHg) time after administration (hour) 0.5 (dose 1 mg/kg i.v. bolus): −100 mmHg; Decrease in systolic blood pressure (mmHg) time after administration (hour) 4 (dose 1 mg/kg i.v. bolus): 8 mmHg
"COc1cc(CCCN2CCC(=C3c4ccccc4C=Cc4ccccc43)CC2)cc(OC)c1OC.Cl.Cl [Example 317, 3-(4-(5H-Dibenzo[a,d]cyclohepten-5-ylidene)-1-piperidinyl)-1-(3,4,5-trimethoxyphenyl)propane dihydrochloride]",−118,−14,
"COc1ccc2c(c1OC)CCC(CCN1CCC(=C3c4ccccc4C=Cc4ccccc43)CC1)C2.Cl (centres unmarked) [Example 318, 2-(3-(4-(5H-Dibenzo[a,d]cyclohepten-5-ylidene)-1-piperidinyl)-1-ethyl)-5,6-dimethoxy-1,2,34-tetrahydronaphthalene hydrochloride]",−83,−57,
"COC1=C(OC)CC2=CC=CC(CN3CCC(=C4c5ccccc5C=Cc5ccccc54)CC3)=CC2=C1.Cl [Example 319, 6-(4-(5H-Dibenzo[a,d]cyclohepten-5-ylidene)-1-piperidinyl)methyl-2,3-dimethoxybenzocycloheptene hydrochloride]",−104,−20,
"COc1cc(C=CCN2CCC(=C3c4ccccc4C=Cc4ccccc43)CC2)cc(OC)c1OC.Cl [Example 320, 4-(5H-Dibenzo[a,d]cyclohepten-5-ylidene)-1-(3,4,5-trimethoxycinnamyl)piperdine hydrochloride]",−147,−113,
"CC(=O)N1CCC(C=CCCCN2CCC(=C3c4ccccc4C=Cc4ccccc43)CC2)CC1.Cl.Cl [Example 321, 1-(N-Acetyl-4-piperidinyl)-5-(4-(5H-dibenzo[a,d]cyclohepten-5-ylidene)-1-piperidinyl)-1-pentene dihydrochloride]",−60,−4,
"COC(=O)c1c(C)nc(CCCCN2CCC(=C3c4ccccc4C=Cc4ccccc43)CC2)c(C(=O)OC)c1C.Cl [Example 323, 2-(4-(4-(5H-Dibenzo[a,d]cyclohepten-5-ylidene)-1-piperidinyl)-1-butyl)-3,4-5,6-tetramethylpyridine-3,5-dicarboxylate hydrochloride]",−117,−11,
"COC1CCC(CCCN2CCC(=C3c4ccccc4C=Cc4ccccc43)CC2)CC1.Cl (centres unmarked) [Example 324, 1-(1-(4-Methoxy)cyclohecyl)-3-(4-(5H-Dibenzo[a,d]cyclohepten-5-ylidene)-1-piperidinyl)propane hydrochloride]",−137,−46,
"Cl.O=[N+]([O-])c1ccc(C=CCN2CCC(=C3c4ccccc4C=Cc4ccccc43)CC2)cc1 [Example 325, (5H-Dibenzo[a,d]cyclohepten-5-ylidene)-1-(4-nitrocinnamyl)piperidine hydrochloride]",−115,−100,
"Cl.Cl.Nc1ccc(C=CCN2CCC(=C3c4ccccc4C=Cc4ccccc43)CC2)cc1 [Example 326, 1-(4-Aminocinnamyl)-4-(5H-Dibenzo[a,d]cyclohepten-5-ylidene)-1-piperidine dihydrochloride]",,,Decrease in systolic blood pressure (mmHg) time after administration (hour) 0.5 (dose 1 mg/kg i.v. bolus): −125 mmHg; Decrease in systolic blood pressure (mmHg) time after administration (hour) 4 (dose 1 mg/kg i.v. bolus): −102 mmHg
"COc1ccc(CCCN2CCC(=C3c4ccccc4C=Cc4ccccc43)CC2)c(OC)c1.Cl.Cl [Example 328, 3-(4-(5H-Dibenzo[a,d]cyclohepten-5-ylidene)-1-piperidinyl)-1-(2,4-dimethoxyphenyl)propane dihydrochloride]",−125,−87,
"Cl.O=[N+]([O-])c1cccc2c1CC(CN1CCC(=C3c4ccccc4C=Cc4ccccc43)CC1)C2 (centres unmarked) [Example 329, 2-(4-(5H-Dibenzo[a,d]cyclohepten-5-ylidene)-1-piperidinyl)methyl-4′-nitroindan hydrochloride]",−34,−7,
"Cl.Nc1cccc2c1CC(CN1CCC(=C3c4ccccc4C=Cc4ccccc43)CC1)C2 (centres unmarked) [Example 330, 4′-Amino-2-(4-(5H-Dibenzo[a,d]cyclohepten-5-ylidene)-1-piperidinyl)methylindan hydrochloride]",−93,−25,
"CC(=O)Nc1cccc2c1CC(CN1CCC(=C3c4ccccc4C=Cc4ccccc43)CC1)C2.Cl (centres unmarked) [Example 331, 4′Acetylamino-2(4-(5H-Dibenzo[a,d]cyclohepten-5-ylidene)-1-Piperidinyl)methylindan hydrochloride]",−62,−14,
"Cl.O=[N+]([O-])c1ccc2c(c1)CC(CN1CCC(=C3c4ccccc4C=Cc4ccccc43)CC1)C2 (centres unmarked) [Example 332, 2-(4-(5H-Dibenzo[a,d]cyclohepten-5-ylidene)-1-piperidinyl)methyl-5′-nitroindan hydrochloride]",−111,−57,
"CC(=O)Nc1ccc2c(c1)CC(CN1CCC(=C3c4ccccc4C=Cc4ccccc43)CC1)C2.Cl (centres unmarked) [Example 334, 5′-acetylamino-2-(4-(5H-Dibenzo[a,d]cyclohepten-5-ylidene)-1-piperidinyl)methylindan hydrochloride]",,,Decrease in systolic blood pressure (mmHg) time after administration (hour) 0.5 (dose 3 mg/kg i.v. bolus): −130 mmHg; Decrease in systolic blood pressure (mmHg) time after administration (hour) 4 (dose 3 mg/kg i.v. bolus): −93 mmHg
"COc1ccc(OC)c(C=CCN2CCC(=C3c4ccccc4C=Cc4ccccc43)CC2)c1.Cl [Example 343, 4-(5H-Dibenzo[a,d]cyclohepten-5-ylidene)-1-(2,5-dimethoxycinnamyl)piperidine hydrochloride]",,,Decrease in systolic blood pressure (mmHg) time after administration (hour) 0.5 (dose 3 mg/kg i.v. bolus): −83 mmHg; Decrease in systolic blood pressure (mmHg) time after administration (hour) 4 (dose 3 mg/kg i.v. bolus): −45 mmHg
"COc1cccc(C=CCN2CCC(=C3c4ccccc4C=Cc4ccccc43)CC2)c1OC.Cl [Example 344, 4-(5H-Dibenzo[a,d]cyclohepten-5-ylidene)-1-(2,3-dimethoxycinnamyl)piperidine hydrochloride]",,,Decrease in systolic blood pressure (mmHg) time after administration (hour) 0.5 (dose 1 mg/kg i.v. bolus): −123 mmHg; Decrease in systolic blood pressure (mmHg) time after administration (hour) 4 (dose 1 mg/kg i.v. bolus): −35 mmHg
"COc1cc(C=CCN2CCC(=C3c4ccccc4C=Cc4ccccc43)CC2)cc(OC)c1.Cl [Example 345, 4-(5H-Dibenzo[a,d]cyclohepten-5-ylidene)-1-(3,5-dimethoxycinnamyl)piperidine hydrochloride]",,,Decrease in systolic blood pressure (mmHg) time after administration (hour) 0.5 (dose 3 mg/kg i.v. bolus): −120 mmHg; Decrease in systolic blood pressure (mmHg) time after administration (hour) 4 (dose 3 mg/kg i.v. bolus): −95 mmHg
"Cl.N#Cc1ccc(C=CCN2CCC(=C3c4ccccc4C=Cc4ccccc43)CC2)cc1 [Example 346, 1-(4-Cyanocinnamyl)-4-(5H-Dibenzo[a,d]cyclohepten-5-ylidene)-1-piperidine hydrochloride]",,,Decrease in systolic blood pressure (mmHg) time after administration (hour) 0.5 (dose 3 mg/kg i.v. bolus): −142 mmHg; Decrease in systolic blood pressure (mmHg) time after administration (hour) 4 (dose 3 mg/kg i.v. bolus): −121 mmHg
"COc1ccccc1C=CCN1CCC(=C2c3ccccc3C=Cc3ccccc32)CC1.Cl [Example 347, 4-(5H-Dibenzo[a,d]cyclohepten-5-ylidene)-1-(2-methoxycinnamyl)piperidine hydrochloride]",,,Decrease in systolic blood pressure (mmHg) time after administration (hour) 0.5 (dose 3 mg/kg i.v. bolus): −116 mmHg; Decrease in systolic blood pressure (mmHg) time after administration (hour) 4 (dose 3 mg/kg i.v. bolus): −53 mmHg

# — patent USRE38257E1, “Piperdine derivatives and hypotensives containing the same” (Ajinomoto Co., Inc., priority 1988, dated 2003)
